# Assay results taken from patent US6054315A, “Method for making activated neutrophils recognizable to macrophages” (The Board of Regents of the University of Oklahoma, priority 1997, dated 2000).
# Assays:
# [1] = biological target: T1, hamster galectin-1 mutant C2S-Gal-1 (Cys-2 to Ser) (Cricetulus griseus, UniProt P48538, C3S); assay: Equilibrium dialysis, binding of N-acetyllactosamine; settings: stated as similar affinity to the mutants
# T1 construct: made in house; host or cells: E. coli (for the recombinant CHO galectin-1)
# Method: (§1) To investigate whether dimerization of the galectin-1 is required to induce apoptosis, mutated forms of galectin-1 were prepared. Recombinant hamster galectin-1, which is highly homologous in sequence with bovine and human galectin-1 with 100% identity at the N- and C-termini positions was used. The protein was prepared as described in Cho and Cummings, 1995b, J. Biol. Chem., 270:5198-5206, ibid, J. Biolchem, 270:5207, 1995. This protein (monomeric or dimeric) contains a stabilizing mutation in which Cys at the 2nd residue was converted to Ser.
# (§2) Specific mutations were created in the N- and C-termini of hamster galectin-1, as indicated in FIG. 3 and as described in further detail in Cho and Cummings, Biochemistry, 35:13081, 1996, which is hereby incorporated by reference herein in its entirety. C2S-Gal-1 contains a single replacement of Cys-2 to Ser. V5D-Gal-1 contains a single mutation of Val-5 to Asp. N-Gal-1 contains disruptions of three hydrophobic amino acids at the N-terminus. We also made another mutant construct, termed N/C-Gal-1, which contained the amino terminal changes of N-Gal-1 in addition to multiple changes in specific hydrophobic amino acids at the C-terminus (data not shown). All mutants, except for C2S-Gal-1, behaved as monomers in size exclusion HPLC and native gel electrophoresis. C2S-Gal-1 was indistinguishable from the native lectin in its ability to undergo monomer-dimer equilibrium and in its carbohydrate-binding affinity. […] However, in equilibrium dialysis N-Gal-1 and V5D-Gal-1 bound N-acetyllactosamine with similar affinity (Kd 90 μM) to that of the C2S-Gal-1 and the native lectin. […] N/C-Gal-1 was non-functional.
# [2] = biological target: T2, hamster galectin-1 mutant N-Gal-1 (monomeric; disruptions of three hydrophobic amino acids at the N-terminus) (Cricetulus griseus, UniProt P48538, A7S/C3S/L5Q/V6D); assay: as above
# T2 construct: made in house; host or cells: E. coli (for the recombinant CHO galectin-1)
# Method: as §1, §2
# [3] = biological target: T3, hamster galectin-1 mutant V5D-Gal-1 (Val-5 to Asp) (Cricetulus griseus, UniProt P48538, V6D); assay: as above
# T3 construct: made in house; host or cells: E. coli (for the recombinant CHO galectin-1)
# Method: as §1, §2
# [4] = biological target: native galectin-1 (native lectin) (Cricetulus griseus, UniProt P48538); assay: as above; set-up: species or system hamster; settings: stated as similar affinity to the mutants
# Method: as §1
# Specific mutations were created in the N- and C-termini of hamster galectin-1, as indicated in FIG. 3 and as described in further detail in Cho and Cummings, Biochemistry, 35:13081, 1996, which is hereby incorporated by reference herein in its entirety. C2S-Gal-1 contains a single replacement of Cys-2 to Ser. V5D-Gal-1 contains a single mutation of Val-5 to Asp. N-Gal-1 contains disruptions of three hydrophobic amino acids at the N-terminus. We also made another mutant construct, termed N/C-Gal-1, which contained the amino terminal changes of N-Gal-1 in addition to multiple changes in specific hydrophobic amino acids at the C-terminus (data not shown). All mutants, except for C2S-Gal-1, behaved as monomers in size exclusion HPLC and native gel electrophoresis. […]
# [5] = biological target: T4, recombinant galectin-1 (Cys at the 2nd residue converted to Ser) (Cricetulus griseus, UniProt P48538, C3S); assay: Binding of biotinylated galectin-1 to activated neutrophils and desialylated HL-60 cells (flow cytometry), inhibition by sugars; assay type: cell-based, hamster; settings: sugar at 10 mM; galectin-1 10 μg/ml, 30 minutes on ice
# T4 construct: made in house; host or cells: E. coli (for the recombinant CHO galectin-1)
# Excerpt: Isolated neutrophils were activated by treatment with PMA and HL-60 cells were desialylated by treatment with neuraminidase. Heparinized blood was obtained from normal donors. Neutrophils were isolated by dextran sedimentation, hypotonic lysis, and density gradient centrifugation on Histopaque-1077 (Sigma), as described [G. A. Zimmerman, T. M. McIntyre, and S. M. Prescott, J. Clin. Invest., 76:2235, 1985]. Typically, the polymorphonuclear cells were >90% neutrophils by Wright-Giemsa staining and >90% CD16^+ as assessed by flow cytometry. Neutrophils were activated by treatment with phorbol myristate acetate (PMA) (Sigma) (0.5 μM) for 20 minutes at 37° C. in RPMI containing 20% FCS (0.5 ml). HL-60 cells were routinely maintained in RPMI containing 20% FCS. Desialylated HL-60 cells were prepared by treating 3×10^7 cells with Arthrobacter ureafaciens neuraminidase (Sigma) (100 mU) in 500 μl of RPMI containing 20% FCS for 1 hour at 37° C. […] The washed cells were incubated with FITC-streptavidin (1:100 dilution) (Sigma), washed once with PBS, and analyzed by flow cytometry. […] "Unstained" indicates fluorescence of either resting neutrophils or HL-60 cells incubated in the absence of either MAL or galectin-1. "Control" indicates fluorescence of either activated neutrophils or desialylated HL-60 cells incubated with galectin-1 in the presence of 10 mM lactose. […]
# [6] = biological target: T4, recombinant galectin-1 (Cys at the 2nd residue converted to Ser); assay: Galectin-1-induced apoptosis of activated neutrophils and desialylated HL-60 cells (annexin V), inhibition by sugars; assay type: cell-based, hamster; settings: galectin-1 10 μM; lactose 10 mM in the method
# Method: Resting or activated neutrophils (3×10^6 cells) were treated with galectin-1 (10 μM) in 0.5 ml of HBSS (lacking Ca^2+ /Mg^2+ and containing 0.5% human albumin) for 90 minutes at 37° C. in the presence or absence of 10 mM lactose. HL-60 cells and desialylated HL-60 cells (3×10^6 cells/0.5 ml) were treated with galectin-1 (10 μM) for 20 hours at 37° C. in the presence or absence of 10 mM lactose. At the end of the incubations all cells were treated with 10 mM lactose in PBS to disaggregate the cells. […]
# (§3) Annexin V is a protein that recognizes phosphatidyl serine (PS) and is a convenient marker for apoptosis of neutrophils and other cells (S. J. Martin, C. P. Reutelingsperger, A. J. McGahon, J. A. Rader, R. C. van Schie, D. M. LaFace and D. R. Green D R, J. Exp. Med., 182:1545, 1995; C. H. Homburg, M. de Haas, A. E. von dem Borne, A. J. Verhoeven, C. P. Reutelingsperger and D. Roos, Blood, 85:532, 1995; I. Vermes, C. Haanen, H. Steffens-Nakken, and C. Reutelingsperger, J. Immunol. Methods, 184:39, 1995; Z. Darzynkiewicz, G. Juan, X. Li, W. Gorczyca, T. Murakami, and F. Traganos, Cytometry 27:1, 1997). […] Within 90 minutes following treatment with 10 μM galectin-1, 36% of the activated neutrophils undergo apoptosis, as determined by their staining with annexin V (FIG. 2A). […]
# [7] = biological target: T4, recombinant galectin-1 (Cys at the 2nd residue converted to Ser); assay: Galectin-1 agglutination of activated neutrophils and desialylated HL-60 cells, inhibition by sugars; assay type: cell-based, hamster
# Method: In all cases cell binding of galectin-1 to cells was inhibited by 10 mM lactose, a known inhibitor of galectin-1 (FIG. 1), but not by 10 mM maltose, an isomeric, non-inhibitory analog (data not shown). We noted that both activated neutrophils and desialylated HL-60 cells are strongly agglutinated by galectin-1, whereas resting neutrophils and HL-60 cells are not appreciably agglutinated, which further underscores the profound differences in surface phenotypes between resting and activated neutrophils.
# as §3
# T4 sequence (P48538 whole entry C3S): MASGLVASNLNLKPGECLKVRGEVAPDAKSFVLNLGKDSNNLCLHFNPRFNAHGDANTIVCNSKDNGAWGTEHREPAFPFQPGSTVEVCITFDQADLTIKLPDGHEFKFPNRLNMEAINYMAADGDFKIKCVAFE
# T2 sequence (P48538 2-135 C3S/L5Q/V6D/A7S limits assumed): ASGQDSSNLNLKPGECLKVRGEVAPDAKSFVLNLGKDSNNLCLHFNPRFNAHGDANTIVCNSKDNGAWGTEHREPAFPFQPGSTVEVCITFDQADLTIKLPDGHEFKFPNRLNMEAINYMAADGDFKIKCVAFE
# T1 sequence (P48538 whole entry C3S): as the sequence (P48538 whole entry C3S) above
# T3 sequence (P48538 whole entry V6D): as the sequence (P48538 whole entry C3S) above, with S3C, V6D counted along it
# Chain of native galectin-1 (native lectin) (P48538 2-135): as the sequence (P48538 2-135 C3S/L5Q/V6D/A7S limits assumed) above, with S2C, Q4L, D5V, S6A counted along it
Kd [1] [µM],Kd [2] [µM],Kd [3] [µM],Kd [4] [µM],inhibition of binding of galectin-1 to cells [5],inhibition of apoptosis-inducing activity of galectin-1 [6],inhibition of cell agglutinating activity of galectin-1 [7],Compound
~90,90,90,~90,,,,CC(=O)N[C@H]1C(O)O[C@H](CO)[C@@H](O[C@@H]2O[C@H](CO)[C@H](O)[C@H](O)[C@H]2O)[C@@H]1O (stereo partly shown) [N-acetyllactosamine]
,,,,inhibited,inhibited,inhibited,OC[C@H]1O[C@@H](O[C@H]2[C@H](O)[C@@H](O)C(O)O[C@@H]2CO)[C@H](O)[C@@H](O)[C@H]1O (stereo partly shown) [lactose]
,,,,not,not,not,OC[C@H]1O[C@H](O[C@H]2[C@H](O)[C@@H](O)[C@H](O)O[C@@H]2CO)[C@H](O)[C@@H](O)[C@@H]1O [maltose]
